A short description of this series: Determining the Kpart value: distribution between n-octanol and aqueous tris hydrochloride. In kind it is physicochemical. The conditions noted are these: n-octanol / aqueous tris hydrochloride 20 mM, pH 7.4, 20° C.; for distribution coefficient Kpart, metal-free compound: spectrophotometry 220 to 340 nm; for distribution coefficient Kpart, iron complex [FeIII-(compound)3]: spectrophotometry 340 to 640 nm, 3:1 iron(III) complex of the compound. The text has this:
A further factor which plays a role with the bio-availability of iron is the ability of the iron complexes to penetrate biological membranes. One of the possible indicators for this membrane permeation is Kpart. Kpart describes the ratio between the concentration of the compound in n-octanol to the concentration of the compound in the aqueous phase. Although the iron complex as well as its corresponding metal-free compound should be able to enter through the biomembrane, both should also have a certain degree of water solubility. In the course of the present invention the iron complexes preferably have Kpart values in a region between 0.02 and 6.0, preferred between 0.1 and 4.0 and even more preferred between 0.2 and 1.0. The metal-free complex preferably has Kpart values between 0.05 and 3.0, preferred between 0.1 and 2.0 and even more preferred between 0.2 and 1.0.
Determining the Kpart value:
Determined is the distribution in each case for the iron complex as well as for the corresponding metal-free compound between n-octanol and aqueous tris hydrochloride (20 mM, pH 7.4; tris: 2 amino-2-hydroxymethylpropane-1,3-diol). The concentration of the substances in the respective phase is measured at 20° C. by way of spectrophotometry. 5 ml of a 10^−4M aqueous solution of iron complex and metal-free compound are mixed with 5 ml of n-octanol for one minute. The aqueous n-octanol mixture arising with this is centrifuged at 1,000 G for 30 seconds. The two resulting phases are separated from one another for evaluating the concentration. The metal-free compound is measured in a region of 220 to 340 nanometers whilst for evaluating the concentration of the corresponding iron complex a region between 340 and 640 nanometers is selected. These regions also apply to the 3:1 maltol-iron(III)-complex.

With `CCn1cccc(O)c1=O` [1-ethyl-3-hydroxypyri-2-one], the “distribution coefficient Kpart, metal-free compound” value is listed as 0.52 and the “distribution coefficient Kpart, iron complex [FeIII-(compound)3]” value is given as 1.06.
`Cn1cccc(O)c1=O` [3-hydroxy-1-methylpyride-2-one]: the “distribution coefficient Kpart, metal-free compound” value amounted to 0.44 and the “distribution coefficient Kpart, iron complex [FeIII-(compound)3]” value is recorded as 0.10.
As for `Cc1occc(=O)c1O` [3-hydroxy-2-methyl-4 pyrone], the “distribution coefficient Kpart, metal-free compound” value worked out at 0.66 and the “distribution coefficient Kpart, iron complex [FeIII-(compound)3]” value is on record as 0.5.

The record behind these values is US6368621B1, “Preparation in particular for use as a medication and/or food supplement” (Peter Greither, priority 1999, dated 2002).
